From patent US20070135485A1, “Novel mch receptor antagonists” (priority 2003, published 2007)
pKi: −log10 of the molar value.

How the values were obtained:
human MCHR1 [1] = target: T1, human MCHR1 (Homo sapiens, UniProt Q99705); experiment: inhibition of MCH-stimulated GTPγ35S binding to clone 43 membranes (functional antagonism); type: biochemical; settings: 40 nM MCH-stimulated GTPγ35S binding, Kb from IC50 by modified Cheng-Prusoff (Leff and Dougal), tested in duplicate
T1 construct: The full-length cDNA for human MCHR1 was cloned; expressed in transfected cells; host or cells: AV12 cells previously transfected with the promiscuous G protein G(alpha)15; membranes
Procedure: (§1) The full-length cDNA for human MCHR1 was cloned from a human adult brain cDNA library (Edge Biosystems, Cat. 38356) by standard polymerase chain reaction (PCR) methodology employing the following primers: sense, 5′-GCCACCATGGACCT GGAAGCCTCGCTGC-3′; anti-sense, 5′-[…]-3′. The PCR reaction was performed in a final volume of 50 μl containing 5 μl of a 10× stock solution of PCR buffer, 1 μl of 10 mM dNTP mixture (200 μM final), 2 μl of 50 mM Mg(SO4) (2 mM final), 0.5 μl of 20 μM solutions of each primer (0.2 μM final), 5 μl of template cDNA containing 0.5 ng DNA, 0.5 μl of Platinum Taq High Fidelity DNA polymerase (Gibco Life Technologies) and 36 μl of H2O. PCR amplification was performed on a Perkin Elmer 9600 thermocycler. After denaturation for 90 sec at 94° C., the amplification sequence consisting of 94° C. for 25 sec, 55° C. for 25 sec and 72° C. for 2 min was repeated 30 times, followed by a final elongation step at 72° C. for 10 min. The desired PCR product (1.1 Kb) was confirmed by agarose gel electrophoresis and the band was extracted from the gel by Geneclean (Bio101) following the manufacturer's instructions. Following extraction, the cDNA fragment was cloned into pCR2.1-TOPO plasmid (Invitrogen) to confirm the identity and sequence.
In order to generate cell lines stably expressing MCHR1, the insert was then subcloned into the Xba I and Not I sites of pcDNA(+)-3.1-neomycin (Invitrogen). After purification by Qiagen Maxi-prep kit (QIAGEN, Inc.), the plasmid was transfected by Fugene 6 (Roche Applied Science) into AV12 cells that had been previously transfected with the promiscuous G protein G[…]15. The transfected cells were selected by G418 (800 μg/ml) for. 10-14 days and single colonies were isolated from culture plates. The G418-resistant colonies were further selected for MCHR1 expression by measuring MCH-stimulated Ca^2+ transients with a fluorometric imaging plate reader (FLIPR, Molecular Devices). […]
Functional antagonism of MCH activity is assessed by measuring the ability of test compound to inhibit MCH-stimulated binding of GTPγ^35S to clone 43 membranes. […]

human MCHR1 [2] = target: T1, human MCHR1; experiment: competitive 125I-MCH binding assay with clone 43 membranes (SPA); settings: 125I-MCH (100 pM) displacement, Ki from IC50 by Cheng-Prusoff, tested in duplicate
Procedure: as §1
In order to generate cell lines stably expressing MCHR1, the insert was then subcloned into the Xba I and Not I sites of pcDNA(+)-3.1-neomycin (Invitrogen). After purification by Qiagen Maxi-prep kit (QIAGEN, Inc.), the plasmid was transfected by Fugene 6 (Roche Applied Science) into AV12 cells that had been previously transfected with the promiscuous G protein G[…]15. The transfected cells were selected by G418 (800 μg/ml) for. 10-14 days and single colonies were isolated from culture plates. The G418-resistant colonies were further selected for MCHR1 expression by measuring MCH-stimulated Ca^2+ transients with a fluorometric imaging plate reader (FLIPR, Molecular Devices).
Both the ^125I-MCH binding and functional GTPγ^35S binding assays employed membranes isolated from a clone designated as clone 43. Typically, cells from 20 confluent T225 flasks were processed by washing the monolayers in cold phosphate-buffered saline (PBS), scraping the cells into same and re-suspending the cell pellet in 35 ml of 250 mM Sucrose, 50 mM HEPES, pH 7.5, 1 mM MgCl2, 24 μg/ml DNase I, and protease inhibitors (1 Complete® tablet, per 50 ml of buffer prepared, Roche Diagnostics). After incubation on ice for 5 min, cells were disrupted with 20-25 strokes of a Teflon/Glass homogenizer attached to an overhead motorized stirrer, and the homogenate was centrifuged at 40,000 rpm in Beckman Type 70.1 Ti rotor. The pellets were re-suspended in 250 mM Sucrose, 50 mM HEPES, pH 7.5, 1.5 mM CaCl2, 1 mM MgSO4 and protease inhibitors by Teflon/Glass homogenization to achieve a protein concentration of ˜3-5 mg/ml (Pierce BCA assay with Bovine serum albumin as standard). Aliquots were stored at −70° C.
Binding of compounds to MCHR1 was assessed in a competitive binding assay employing ^125I-MCH, compound and clone 43 membranes. Briefly, assays are carried out in 96-well Costar 3632 white opaque plates in a total volume of 200 μl containing 25 mM HEPES, pH 7.5, 10 mM CaCl2, 2 mg/ml bovine serum albumin, 0.5% dimethyl sulfoxide (DMSO), 4 μg of clone 43 membranes, 100 pM ^125I-MCH (NEN), 1.0 mg of wheat germ agglutinin scintillation proximity assay beads (WGA-SPA beads, Amersham) and a graded dose of test compound. Non-specific binding is assessed in the presence of 1 μM unlabeled MCH. Bound ^125I-MCH is determined by placing sealed plates in a Microbeta Trilux (Wallac) and counting after a 5 hr delay.
IC50 values (defined as the concentration of test compound required to reduce specific binding of ^125I-MCH by 50%) are determined by fitting the concentration-response data to a 4-parameter model (max response, min response, Hill coefficient, IC50) using Excel. […]

T1 sequence (Q99705 whole entry): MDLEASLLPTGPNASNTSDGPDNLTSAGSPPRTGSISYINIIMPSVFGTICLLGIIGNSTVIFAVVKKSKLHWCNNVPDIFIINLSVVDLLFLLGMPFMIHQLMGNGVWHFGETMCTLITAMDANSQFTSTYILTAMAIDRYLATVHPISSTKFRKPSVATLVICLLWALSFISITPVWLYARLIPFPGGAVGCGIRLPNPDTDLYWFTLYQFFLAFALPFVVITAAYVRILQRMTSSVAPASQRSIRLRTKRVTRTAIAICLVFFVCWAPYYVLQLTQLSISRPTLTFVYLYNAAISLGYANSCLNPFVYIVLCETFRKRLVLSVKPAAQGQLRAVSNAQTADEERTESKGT

SMILES | Kb (human MCHR1 [1]) | pKi (human MCHR1 [2]) | melting point
CN(C)Cc1cn(C)c2ccc(-c3nnc(CSCCOc4ccccc4)o3)cc12 |  | 4.96 | 
CN(C)Cc1cc2cc(-c3nnc(CSCCOc4ccccc4)o3)ccc2[nH]1.O=C(O)C(=O)O [Example 3, dimethyl-{5-[5-(2-phenoxy-ethylsulfanylmethyl)-[1,3,4]oxadiazol-2-yl]-1H-indol-2-ylmethyl}-amine oxalate] |  |  | 147 to 150 °C
CN(C)Cc1c[nH]c2cc(-c3nnc(CSCCOc4ccccc4)o3)ccc12 |  | 6.17 | 
CN(C)Cc1cc2ccc(-c3nnc(CSCCOc4ccccc4)o3)cc2n1C.O=C(O)C(=O)O [Example 5, dimethyl-{1-methyl-6-[5-(2-phenoxy-ethylsulfanylmethyl)-[1,3,4]oxadiazol-2-yl]-1H-indol-2-ylmethyl}-amine oxalate] |  |  | 125.5 to 129 °C
CN(C)Cc1cc2cc(-c3nnc(CSCCOc4ccccc4)o3)ccc2[nH]1 |  | 6.72 | 
O=C1c2cc(-c3nnc(CSCCOc4ccccc4)o3)ccc2CN1CCN1CCCCC1 |  | 5.70 | 
c1ccc(OCCSCc2nnc(-c3ccc4cc(CN5CCCC5)ccc4c3)o2)cc1 | 7 nM | 8.14 | 
O=C1c2ccc(-c3nnc(CSCCOc4ccccc4)o3)cc2CN1CCN1CCCCC1 |  | 5.97 | 
CN(C)Cc1cc2ccc(-c3nnc(CSCCOc4ccccc4)o3)cc2[nH]1 [Example 4, dimethyl-{6-[5-(2-phenoxy-ethylsulfanylmethyl)-[1,3,4]oxadiazol-2-yl]-1H-indol-2-ylmethyl}-amine] |  |  | 128 to 130 °C

Results, then the compound that gave them:

Kb (human MCHR1 [1]) | pKi (human MCHR1 [2]) | melting point | SMILES
11.8 nM | 8.09 |  | CN(C)Cc1ccc2cc(-c3nnc(CSCCOc4ccccc4)o3)ccc2c1 [drawing 44]
 | 6.63 |  | CN(C)Cc1cc2cc(-c3nnc(CSCCOc4ccccc4)o3)ccc2o1 [drawing 50]
 |  | 127 to 129 °C | CN(C)Cc1c[nH]c2cc(-c3nnc(CSCCOc4ccccc4)o3)ccc12.O=C(O)/C=C\C(=O)O [Example 7, Dimethyl-{6-[5-(2-phenoxy-ethylsulfanylmethyl)-[1,3,4]oxadiazol-2-yl]-1H-indol-3-ylmethyl}-amine maleate]
58.4 nM | 7.75 |  | c1ccc(OCCSCc2nnc(-c3ccc4cc(CN5CCCCC5)ccc4c3)o2)cc1 [drawing 47]
 | 6.82 |  | CN(C)Cc1cc2cc(-c3nnc(CSCCOc4ccccc4)o3)ccc2o1 [drawing 52]
 | 6.43 |  | CN(C)Cc1cc2ccc(-c3nnc(CSCCOc4ccccc4)o3)cc2o1 [drawing 39]
 | 6.42 |  | CN(C)Cc1cc2ccc(-c3nnc(CSCCOc4ccccc4)o3)cc2o1 [drawing 41]
 |  | 93 to 94 °C | c1ccc(OCCSCc2nnc(-c3ccc4cc(CN5CCCCC5)ccc4c3)o2)cc1 [Example 13, 1 -{6-[5-(2-phenoxy-ethylsulfanylmethyl)-[1,3,4]oxadiazol-2-yl]-naphthalen-2-ylmethyl}-piperidine]
 |  | 151 to 154 °C | CN(C)Cc1cn(C)c2ccc(-c3nnc(CSCCOc4ccccc4)o3)cc12.O=C(O)C(=O)O [Example 8, dimethyl-{1-methyl-5-[5-(2-phenoxy-ethylsulfanylmethyl) -[1,3,4]oxadiazol-2-yl]-1H-indol-3-ylmethyl}-amine oxalate]
 |  | 95 to 96 °C | CN(C)Cc1ccc2cc(-c3nnc(CSCCOc4ccccc4)o3)ccc2c1 [Example 11, Dimethyl-{6-[5-(2-phenoxy-ethylsulfanylmethyl)-[1,3,4]oxadiazol-2-yl]-naphthalen-2-ylmethyl}-amine]
 |  | 133 to 135 °C | O=C(O)/C=C\C(=O)O.c1ccc(OCCSCc2nnc(-c3ccc4cc(CN5CCCC5)ccc4c3)o2)cc1 [Example 12, 2-(2-Phenoxy-ethylsulfanylmethyl)-5-(6-pyrrolidin-1-ylmethyl-naphthalen-2-yl)-[1,3,4]oxadiazole maleate]
 |  | 159 to 163 °C | CN(C)Cc1c[nH]c2ccc(-c3nnc(CSCCOc4ccccc4)o3)cc12.O=C(O)C(=O)O [Example 6, dimethyl-{5-[5-(2-phenoxy-ethylsulfanylmethyl)-[1,3,4]oxadiazol-2-yl]-1H-indol-3-ylmethyl}-amine oxalate]
 | 7.46 |  | CN(C)Cc1cc2ccc(-c3nnc(CSCCOc4ccccc4)o3)cc2[nH]1 [drawing 54]
